Measurements as given in patent publication US20040171624A1, “Pharmaceutical composition for treating mood disorders” (priority 2001, published 2004).

System: mouse
Type: in vivo
Conditions: oral administration at 5 g/kg weight
Source text: The theanine used in the present invention has high safety. […] Also, especially L-theanine is known as a main component of umami (tastiness) of the green tea, and is also used as a food additive giving umami, without the limitation of its added amount under the regulation for food hygiene. Moreover, contrary to the conventional drugs, since there is no side effect by theanine at all, the mood disorders can be safely and effectively treated, ameliorated or the like according to the composition of the present invention.

**Q.** How did the cases of death turn out when `CCNC(=O)CC[C@H](N)C(=O)O` [theanine] was run?
**A.** no cases of death
